Test results from patent publication US10786690B2, “Amide derivatives of polycaffeoylquinic acids, process for producing same and uses thereof” (TEMISIS, priority 2016, dated 2020).

Tested on: female SKH-1 hairless mice
Experiment: TPA-induced skin inflammation in female SKH-1 hairless mice, macroscopic visual scoring
Format: in vivo
Experimental: The study is performed on 18 female SKH-1 hairless mice, weighing roughly 20-25 g and divided into 3 groups (n=6/housed in pairs) under controlled temperature (24±2° C.) and humidity (50±20%) conditions and with a 12-hour reversed light cycle (light from 21:00 to 09:00) (food and water ad libitum).
The compounds to be tested are as follows: • Excipial® ointment (control) • PAT1657 (octyl-isochlorogenamide A) incorporated at 1.33% or 2.67% by mass in Excipial® ointment
The treatment groups are distributed as follows: • G1: induced skin inflammation+daily treatment with vehicle (Excipial® ointment) (Control), • G2: induced skin inflammation+treatment with PAT1657 incorporated at 1.33% by mass in Excipial® ointment (PAT1657/1.33%), • G3: induced skin inflammation+treatment with PAT1657 incorporated at 2.67% by mass in Excipial® ointment (PAT1657/2.67%). Induction and Maintenance of Skin Inflammation
Skin inflammation is induced for each mouse by daily dorsal cutaneous application to Zone A (FIG. 9) for 7 days (day 1 to day 7) of 100 μL of TPA acetone solution at a concentration of 0.2 mg/ml.
It is then maintained by cutaneous application every 2 days for 7 days (day 8 to day 14) of 100 μl of TPA acetone solution.
For the vehicle, the animals (G1) were treated daily by cutaneous application of 0.125 g of ointment on the backs of the mice just off the zone of application of TPA acetone solution (roughly 5 cm^2 area corresponding to zones A and B shown in FIG. 9), for 7 days from day 8 to day 14.
For compound PAT1657, the animals (G2 and G3) were treated by cutaneous application of 0.125 g of ointment on the backs of the mice just off the zone of application of TPA acetone solution (roughly 5 cm^2 area corresponding to zones A and B shown in FIG. 9), on days 8, 11 and 14.
Macroscopic visual scoring of skin inflammation is performed daily for each mouse from day 8 to day 15 by quantifying it according to the following scale (Guenon-Macé et al., 2015):
Macroscopic visual scoring of skin inflammation makes it possible to quantify the following parameters: • degree of skin inflammation in the TPA acetone solution application zone and in the ointment treatment zone corresponding to zone A in FIG. 9, • degree of skin inflammation in the ointment treatment zone and outside the TPA acetone solution application zone corresponding to zone B in FIG. 9, • degree of skin inflammation on the rest of the back corresponding to zone C in FIG. 9, • Overall macroscopic score of skin inflammation (total of the scores of the three zones A, B and C shown in FIG. 9). Result Animal Mortality

[1] = PAT1657 at 1.33% and 2.67% in Excipial ointment, relative to control, from day 10 onwards

CCCCCCCCNC(=O)[C@]1(O)C[C@@H](OC(=O)/C=C/c2ccc(O)c(O)c2)[C@@H](O)[C@H](OC(=O)/C=C/c2ccc(O)c(O)c2)C1 [PAT1657, (2E,2′E)-((1R,2S,3R,5S)-2,5-dihydroxy-5-(octylcarbamoyl)cyclohexane-1,3-diyl) bis(3-(3,4-dihydroxyphenyl)acrylate)]
degree of skin inflammation, zone A (TPA application zone and treatment zone) (PAT1657 at 1.33% and 2.67% in Excipial ointment, cutaneous, days 8, 11, 14, relative to control, from day 13 onwards): significant decrease | degree of skin inflammation, zone C (rest of the back) [1]: significant decrease | overall degree of skin inflammation (zones A, B and C) [1]: significant decrease | degree of skin inflammation, zone B (treatment zone outside TPA application zone) (PAT1657 at 1.33% and 2.67% in Excipial ointment, relative to control, from day 13 onwards): significant decrease | reaction to application of the products (SKH-1 mice, cutaneous application of ointments): No reaction was observed | intensity of skin inflammation from a macroscopic point of view (two doses, cutaneous application every 3 days, curative treatment, dose-dependent effect): significantly reduced
